# Columns and labels:
# rice (Oryza sativa) = assay: Test B flooded paddy test, rice; conditions: 336 h, read-out: Plant response rating, Rice
# [1] = system: galium (catchweed bedstraw, Galium aparine); assay: Test A postemergence, galium; assay type: in vivo; conditions: Galium, post-emergence, 240 h, read-out: Plant response rating, Galium
# How it was run: (§1)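 After sowing into a sand-amended loam, pots for the preemergence test were treated by spraying directly onto soil. In parallel, seedlings at the one- to two-leaf stage and 2 to 10 cm tall were treated postemergence with the identical surfactant-containing formulation.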
# kochia (Bassia scoparia) [2] = assay: Test A postemergence, kochia; assay type: in vivo; conditions: Bassia scoparia, post-emergence, 240 h, read-out: Plant response rating, Kochia
# How it was run: (§2)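 Compounds in non-phytotoxic solvent with surfactant. Soil: loam/sand. Preemergence via directed soil spray after seeding; postemergence on seedlings 2–10 cm, one- to two-leaf.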
# [3] = system: wheat (Triticum aestivum); assay: Test A postemergence, wheat; assay type: in vivo; conditions: Triticum aestivum, post-emergence, 240 h, read-out: Plant response rating, Wheat
# How it was run: as §1
# [4] = system: ducksalad (Heteranthera limosa); assay: Test B flooded paddy test, ducksalad; conditions: 336 h, read-out: Plant response rating, Ducksalad
# [5] = system: barnyardgrass (Echinochloa crus-galli); assay: Test A preemergence, barnyardgrass; assay type: in vivo; conditions: Echinochloa crus-galli, pre-emergence, 240 h
# How it was run: as §2
# [6] = system: barnyardgrass (Echinochloa crus-galli); assay: Test B flooded paddy test, barnyardgrass; conditions: 336 h, read-out: Plant response rating, Barnyardgrass
# [7] = system: barnyardgrass (Echinochloa crus-galli); assay: Test A postemergence, barnyardgrass; assay type: in vivo; conditions: Echinochloa crus-galli, post-emergence, 240 h, read-out: Plant response rating, Barnyardgrass
# How it was run: as §1
# [8] = system: pigweed (Amaranthus retroflexus); assay: Test A postemergence, pigweed; assay type: in vivo; conditions: Amaranthus retroflexus, post-emergence, 240 h, read-out: Plant response rating, Pigweed
# How it was run: as §2
# [9] = system: Foxtail, Giant (giant foxtail, Setaria faberi); assay: Test A preemergence, Foxtail, Giant; assay type: in vivo; conditions: Setaria faberi, pre-emergence, 240 h
# How it was run: as §2
# [10] = system: ragweed (common ragweed, Ambrosia artemisiifolia); assay: Test A preemergence, ragweed; assay type: in vivo; conditions: Ambrosia artemisiifolia, pre-emergence, 240 h
# How it was run: as §2
# [11] = system: ragweed (common ragweed, Ambrosia artemisiifolia); assay: Test A postemergence, ragweed; assay type: in vivo; conditions: Ambrosia artemisiifolia, post-emergence, 240 h, read-out: Plant response rating, Ragweed
# How it was run: as §2
# [12] = system: Foxtail, Giant (giant foxtail, Setaria faberi); assay: Test A postemergence, Foxtail, Giant; assay type: in vivo; conditions: Setaria faberi, post-emergence, 240 h, read-out: Plant response rating, Foxtail, Giant
# How it was run: as §2
# [13] = system: blackgrass (Alopecurus myosuroides); assay: Test A postemergence, blackgrass; assay type: in vivo; conditions: Alopecurus myosuroides, post-emergence, 240 h, read-out: Plant response rating, Blackgrass
# How it was run: as §2
# kochia (Bassia scoparia) [14] = assay: Test A preemergence, kochia; assay type: in vivo; conditions: Bassia scoparia, pre-emergence, 240 h
# How it was run: as §2
# [15] = system: Ryegrass, Italian (Italian ryegrass, Lolium multiflorum); assay: Test A postemergence, Ryegrass, Italian; assay type: in vivo; conditions: Lolium multiflorum, post-emergence, 240 h, read-out: Plant response rating, Ryegrass, Italian
# How it was run: as §2
# [16] = system: Ryegrass, Italian (Italian ryegrass, Lolium multiflorum); assay: Test A preemergence, Ryegrass, Italian; assay type: in vivo; conditions: Lolium multiflorum, pre-emergence, 240 h
# How it was run: as §2
# corn (Zea mays) = assay: Test A postemergence, corn; assay type: in vivo; conditions: Zea mays, post-emergence, 240 h, read-out: Plant response rating, Corn
# How it was run: as §2
structure (smiles),measurement,setting,value
"Cc1cc(C)c(N(COC(=O)C(C)(C)C)S(=O)(=O)C(F)(F)F)cc1N1CCC2(CCCCC2)C1=O [Compound 268, [[2,4-Dimethyl-5-(1-oxo-2-azaspiro[4.5]dec-2-yl)phenyl][(trifluoromethyl)sulfonyl]amino]methyl 2,2-dimethylpropanoate]",plant injury at 250 g/ha,rice (Oryza sativa),0%
same,pest or weed control at 125 g/ha,[1],90%
same,pest or weed control at 500 g/ha,[1],90%
same,pest or weed control at 125 g/ha,kochia (Bassia scoparia) [2],30%
same,pest or weed control at 500 g/ha,kochia (Bassia scoparia) [2],40%
same,plant injury at 125 g/ha,[3],50%
same,plant injury at 500 g/ha,[3],70%
same,pest or weed control at 250 g/ha,[4],70%
same,pest or weed control at 500 g/ha,[5]; read-out: Barnyardgrass plant response rating,50%
same,pest or weed control at 125 g/ha,"[5]; read-out: Plant response rating, Barnyardgrass",40%
same,pest or weed control at 250 g/ha,[6],40%
same,pest or weed control at 125 g/ha,[7],50%
same,pest or weed control at 500 g/ha,[7],80%
same,pest or weed control at 125 g/ha,[8],60%
same,pest or weed control at 500 g/ha,[8],80%
same,pest or weed control at 500 g/ha,"[9]; read-out: Foxtail, Giant plant response rating",70%
same,pest or weed control at 125 g/ha,"[9]; read-out: Plant response rating, Foxtail, Giant",50%
same,pest or weed control at 125 g/ha,"[10]; read-out: Plant response rating, Ragweed",40%
same,pest or weed control at 500 g/ha,[10]; read-out: Ragweed plant response rating,90%
same,pest or weed control at 125 g/ha,[11],70%
same,pest or weed control at 500 g/ha,[11],90%
same,pest or weed control at 125 g/ha,[12],0%
same,pest or weed control at 500 g/ha,[12],30%
same,pest or weed control at 125 g/ha,[13],20%
same,pest or weed control at 500 g/ha,[13],40%
same,pest or weed control at 500 g/ha,kochia (Bassia scoparia) [14]; read-out: Kochia plant response rating,70%
same,pest or weed control at 125 g/ha,"kochia (Bassia scoparia) [14]; read-out: Plant response rating, Kochia",70%
same,pest or weed control at 125 g/ha,[15],40%
same,pest or weed control at 500 g/ha,[15],60%
same,pest or weed control at 125 g/ha,"[16]; read-out: Plant response rating, Ryegrass, Italian",0%
same,pest or weed control at 500 g/ha,"[16]; read-out: Ryegrass, Italian plant response rating",60%
same,plant injury at 125 g/ha,corn (Zea mays),50%
same,plant injury at 500 g/ha,corn (Zea mays),70%

# From patent US20230278972A1, “SUBSTITUTED HALOALKYL SULFONANILIDE HERBICIDES” (FMC Corporation, priority 2020, published 2023)
